Data from patent US7329652B2, “Diaminotriazole compounds useful as protein kinase inhibitors” (Vertex Pharamaceuticals Incorporated, priority 2004, dated 2008).

Columns and labels:
[1] = molecular target: JAK-2 enzyme (Homo sapiens, UniProt O60674); assay: JAK2 inhibition assay (radiometric 33P filter assay); type: biochemical; conditions: 15 μM poly(Glu)4Tyr, 12 μM ATP; read-out: JAK2 inhibition data (Ki)
Method in brief: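 JAK-2 enzyme in 100 mM HEPES pH 7.4, 1 mM DTT, 10 mM MgCl2, 25 mM NaCl, 0.01% BSA, with final 12 μM [33P]ATP and 15 μM poly(Glu)4Tyr. Reactions ran 20 min at 25 °C and were stopped with TCA. 33P incorporation was counted after glass-fibre filtration.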

[2] = molecular target: T1, JAK3 (Homo sapiens, UniProt P52333); assay: JAK3 inhibition assay (radiometric 33P filter assay); type: biochemical; conditions: 1 μM poly(Glu)4Tyr, 5 μM ATP, 1 nM JAK3, 25° C.; read-out: JAK3 inhibition data (Ki)
T1 sequence (P52333 1-1124): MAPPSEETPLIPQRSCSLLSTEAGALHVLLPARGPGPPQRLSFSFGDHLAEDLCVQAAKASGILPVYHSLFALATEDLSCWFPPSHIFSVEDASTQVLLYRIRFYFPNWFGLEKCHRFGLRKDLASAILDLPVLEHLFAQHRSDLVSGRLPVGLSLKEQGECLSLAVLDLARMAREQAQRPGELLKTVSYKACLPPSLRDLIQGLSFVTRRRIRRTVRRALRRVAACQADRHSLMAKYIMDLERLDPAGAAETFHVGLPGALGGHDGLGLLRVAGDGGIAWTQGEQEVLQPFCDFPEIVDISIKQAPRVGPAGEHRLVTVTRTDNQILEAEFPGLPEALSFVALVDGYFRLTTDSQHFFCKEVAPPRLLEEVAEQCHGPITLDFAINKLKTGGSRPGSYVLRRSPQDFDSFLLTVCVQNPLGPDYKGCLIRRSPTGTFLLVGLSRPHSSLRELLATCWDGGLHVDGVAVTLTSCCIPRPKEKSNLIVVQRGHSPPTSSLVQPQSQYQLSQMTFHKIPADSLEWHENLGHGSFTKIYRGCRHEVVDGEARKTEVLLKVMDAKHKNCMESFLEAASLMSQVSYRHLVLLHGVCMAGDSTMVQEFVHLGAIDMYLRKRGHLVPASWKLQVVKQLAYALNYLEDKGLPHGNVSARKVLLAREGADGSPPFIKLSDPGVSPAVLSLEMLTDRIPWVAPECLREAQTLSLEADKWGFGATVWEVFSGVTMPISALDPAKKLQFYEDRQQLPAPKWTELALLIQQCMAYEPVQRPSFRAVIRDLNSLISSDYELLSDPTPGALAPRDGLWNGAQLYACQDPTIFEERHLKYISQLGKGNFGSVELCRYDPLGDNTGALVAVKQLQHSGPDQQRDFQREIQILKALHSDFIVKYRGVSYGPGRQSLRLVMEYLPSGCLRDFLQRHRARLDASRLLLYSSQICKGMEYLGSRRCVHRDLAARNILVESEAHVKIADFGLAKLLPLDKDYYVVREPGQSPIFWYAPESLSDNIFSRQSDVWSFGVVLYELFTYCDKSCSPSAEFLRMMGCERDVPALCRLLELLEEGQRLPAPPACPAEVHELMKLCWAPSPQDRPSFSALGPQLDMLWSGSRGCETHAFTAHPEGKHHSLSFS
Method in brief: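 Final conditions were 1 nM JAK3, 5 μM ATP (200 uCi/μmole) and 1 μM poly(Glu)4Tyr in 100 mM HEPES pH 7.4, 10 mM MgCl2, 25 mM NaCl, 1 mM DTT and 0.01% BSA. After 20 min at 25 °C the reaction was stopped with TCA. 33P incorporation was counted after glass-fibre filtration.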

Sequence of JAK-2 enzyme (O60674 whole entry, species assumed): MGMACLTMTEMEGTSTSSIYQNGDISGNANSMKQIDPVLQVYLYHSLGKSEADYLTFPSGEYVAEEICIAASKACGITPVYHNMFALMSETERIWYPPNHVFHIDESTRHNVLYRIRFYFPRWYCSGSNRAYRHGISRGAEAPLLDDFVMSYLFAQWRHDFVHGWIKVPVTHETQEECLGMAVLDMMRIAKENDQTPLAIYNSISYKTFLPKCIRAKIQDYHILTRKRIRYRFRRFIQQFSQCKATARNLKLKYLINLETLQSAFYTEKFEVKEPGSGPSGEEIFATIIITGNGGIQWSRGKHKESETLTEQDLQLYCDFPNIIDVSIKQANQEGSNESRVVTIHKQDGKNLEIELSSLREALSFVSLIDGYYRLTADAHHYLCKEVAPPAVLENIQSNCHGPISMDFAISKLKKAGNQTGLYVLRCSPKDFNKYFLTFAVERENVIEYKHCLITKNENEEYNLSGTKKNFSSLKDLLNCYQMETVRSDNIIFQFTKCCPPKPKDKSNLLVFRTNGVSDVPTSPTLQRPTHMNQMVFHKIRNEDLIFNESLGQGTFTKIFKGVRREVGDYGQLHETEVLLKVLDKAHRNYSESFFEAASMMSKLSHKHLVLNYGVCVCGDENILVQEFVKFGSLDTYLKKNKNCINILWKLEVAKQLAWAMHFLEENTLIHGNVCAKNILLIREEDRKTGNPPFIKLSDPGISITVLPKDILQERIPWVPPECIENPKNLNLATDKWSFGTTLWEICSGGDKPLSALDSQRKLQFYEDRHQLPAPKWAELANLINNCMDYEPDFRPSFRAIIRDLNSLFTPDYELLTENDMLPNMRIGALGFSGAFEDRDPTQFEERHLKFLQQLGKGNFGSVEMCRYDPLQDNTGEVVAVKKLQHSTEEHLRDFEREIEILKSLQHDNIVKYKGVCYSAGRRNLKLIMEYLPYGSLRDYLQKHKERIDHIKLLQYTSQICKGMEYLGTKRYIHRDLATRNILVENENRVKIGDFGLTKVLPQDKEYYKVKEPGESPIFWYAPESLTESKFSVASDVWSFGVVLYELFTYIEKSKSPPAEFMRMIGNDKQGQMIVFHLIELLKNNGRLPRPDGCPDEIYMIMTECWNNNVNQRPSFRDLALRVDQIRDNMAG

CCOC(=O)N1CCN(c2ccc(Nc3nc(N)n(-c4cc(N5CCCN(S(=O)(=O)CC)CC5)ncn4)n3)cc2)CC1 [Compound 145] showed a Ki [1] of 50 to 500 nM and a Ki [2] of 50 to 500 nM.
Molecule CCCCS(=O)(=O)N1CCCN(c2cc(-n3nc(Nc4ccc(N5CCN(C(=O)OCC)CC5)cc4)nc3N)ccn2)CC1 [Compound 147] has a Ki [1] of 50 to 500 nM and a Ki [2] of 50 to 500 nM.
CC(=O)N1CCCN(c2cc(-n3nc(Nc4ccc(N5CCN(C(=O)C(C)C)CC5)cc4)nc3N)ncn2)CC1 [Compound 44] showed a Ki [1] of less than 50 nM and a Ki [2] of less than 50 nM.
